Laboratory results published in ChEMBL document CHEMBL1145655, “Plant anticancer agents XXV. Constituents of Soulamea soulameoides” (1983).
≈ marks a conversion by molar mass, not a printed value.

Columns and labels:
Type in all cases: functional
[1] = tested on: KB; experiment: Cytotoxicity against human KB cells; conditions: read-out: ED50 (the source's name)
[2] = tested on: P388; experiment: Cytotoxicity against mouse P388 cells; conditions: read-out: ED50 (the source's name)
[3] = tested on: P388; experiment: In vivo antitumor activity against mouse P388 cells at 5 mg/kg relative to control
[4] = tested on: P388; experiment: In vivo antitumor activity against mouse P388 cells at 1.25 mg/kg relative to control
[5] = tested on: P388; experiment: In vivo antitumor activity against mouse P388 cells at 2.5 mg/kg relative to control
[6] = tested on: P388; experiment: In vivo antitumor activity against mouse P388 cells at 1 mg/kg relative to control
[7] = tested on: P388; experiment: In vivo antitumor activity against mouse P388 cells at 0.25 mg/kg relative to control
[8] = tested on: P388; experiment: In vivo antitumor activity against mouse P388 cells at 0.5 mg/kg relative to control
[9] = tested on: P388; experiment: In vivo antitumor activity against mouse P388 cells at 9.83 mg/kg relative to control
[10] = tested on: P388; experiment: In vivo antitumor activity against mouse P388 cells at 19.6 mg/kg relative to control
[11] = tested on: P388; experiment: In vivo antitumor activity against mouse P388 cells at 2.46 mg/kg relative to control
[12] = tested on: P388; experiment: In vivo antitumor activity against mouse P388 cells at 4.92 mg/kg relative to control
[13] = tested on: P388; experiment: In vivo antitumor activity against mouse P388 cells at 7.5 mg/kg relative to control
[14] = tested on: P388; experiment: In vivo antitumor activity against mouse P388 cells at 0.9 mg/kg relative to control
[15] = tested on: P388; experiment: In vivo antitumor activity against mouse P388 cells at 3.8 mg/kg relative to control
[16] = tested on: P388; experiment: In vivo antitumor activity against mouse P388 cells at 1.9 mg/kg relative to control

Which results are given for `COc1cc([C@H]2Oc3c(OC)cc4ccc(=O)oc4c3O[C@@H]2CO)ccc1O` [CLEOMISCOSIN A]?
EC50 [1]: 4.9 µg/mL (≈ 12.7 µM); EC50 [2]: 2.8 µg/mL (≈ 7.25 µM)

How did the T/C [3] turn out when `O=c1ccc2nccc3c4c(O)cccc4n1c23` was run?
The T/C was 102%.

And the T/C [4]?
Its T/C is 108%.

And the T/C [5]?
The T/C was 107%.

What about the EC50 [1] of the same compound?
The EC50 was 2.1 µg/mL (≈ 8.89 µM).

And the EC50 [2]?
Its EC50 is 2.3 µg/mL (≈ 9.74 µM).

Which T/C [6] does the source give for `COC(=O)[C@]12OC[C@]34[C@H]([C@@H](O)[C@@H]1O)[C@@]1(C)[C@H](O)C(=O)C=C(C)[C@@H]1C[C@H]3OC(=O)[C@H](OC(=O)CC(C)C)[C@@H]24` [ISOBRUCEIN A] here?
The T/C was 155%.

And the T/C [7]?
The T/C was 138%.

What about the EC50 [1] of the same compound?
Its EC50 is 0.003 µg/mL (≈ 0.00574 µM).

What about the EC50 [2] of the same compound?
Its EC50 is 0.001 µg/mL (≈ 0.00191 µM).

And the T/C [8]?
The T/C was 145%.

What does the source list for `CC1=CC(=O)[C@@H](O)[C@]2(C)[C@H]3[C@]4(O)OC[C@]35[C@H]([C@@H](C)[C@H]4O)[C@@H](O)C(=O)O[C@@H]5C[C@@H]12` [GLAUCARUBOLONE]?
T/C [3]: 132%; EC50 [1]: 0.11 µg/mL (≈ 0.279 µM); EC50 [2]: 0.01 µg/mL (≈ 0.0254 µM)

How did the T/C [9] turn out when `COC1=C(C)[C@@H]2CC(=O)O[C@@H]3C[C@H]4C(C)=C[C@H](O)C(=O)[C@]4(C)[C@@H](C1=O)[C@@]32C` [PICRASIN B] was run?
Its T/C is 107%.

And the T/C [10]?
The T/C was 107%.

What about the T/C [11] of the same compound?
The T/C was 107%.

What about the T/C [12] of the same compound?
Its T/C is 102%.

And the EC50 [1]?
The EC50 was > 100 µg/mL.

What about the EC50 [2] of the same compound?
The EC50 was > 100 µg/mL.

Which results are given for `CC(=O)O[C@H]1C(=O)O[C@@H]2C[C@H]3C(C)=CC(=O)[C@@H](O)[C@]3(C)[C@H]3[C@]4(O)OC[C@]32[C@@H]1[C@@H](C)[C@H]4O` [HOLACANTHONE]?
T/C [13]: 136%; T/C [14]: 127%; T/C [15]: 154%; T/C [16]: 134%
